Laboratory results from the supplement of paper PMC10307832.

What was measured:
Assay in all cases: relative viability (nuclei count vs DMSO), 5 days (fraction); higher = more cells survive
[1] = compound: C[C@@H](N)c1ccc(C(=O)Nc2ccnc3[nH]ccc23)cc1 + Nc1ncn([C@H]2C[C@H](O)[C@@H](CO)O2)c(=O)n1 [Decitabine] (partner 2 µM)
Summary of the method: (§1)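 Each reported value is a median over duplicate plates. It expresses relative viability: treated-well nuclei count divided by vehicle-well nuclei count. Lung cancer cell lines in 1536-well plates were dosed by pin tool a day after seeding, alone with one drug or with a fixed anchor-drug dose plus five library-drug doses (not always all listed) in √10 steps, and nuclei were counted after 5 days.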

Tanzisertib + Vorinostat = compound: O[C@H]1CC[C@H](Nc2ncc3nc(Nc4c(F)cc(F)cc4F)n([C@H]4CCOC4)c3n2)CC1 [Tanzisertib] + O=C(CCCCCCC(=O)Nc1ccccc1)NO [Vorinostat] (partner 1 µM)
Summary of the method: as §1

[2] = compound: O[C@H]1CC[C@H](Nc2ncc3nc(Nc4c(F)cc(F)cc4F)n([C@H]4CCOC4)c3n2)CC1 [Tanzisertib] + CC(=O)c1c(C)c2cnc(Nc3ccc(N4CCNCC4)cn3)nc2n(C2CCCC2)c1=O [Palbociclib] (partner 0.5 µM)
Summary of the method: as §1

[3] = compound: C[C@@H](N)c1ccc(C(=O)Nc2ccnc3[nH]ccc23)cc1 + Cc1nc(NC(=O)N2CCC[C@H]2C(N)=O)sc1-c1ccnc(C(C)(C)C(F)(F)F)c1 [Alpelisib] (partner 2 µM)
Summary of the method: as §1

| Cell Line | relative viability ([1]; first compound 0.04 µM) | relative viability ([1]; first compound 0.1265 µM) | relative viability ([1]; first compound 0.4 µM) | relative viability ([1]; first compound 1.265 µM) | relative viability ([1]; first compound 4 µM) | relative viability (Tanzisertib + Vorinostat; first compound 0.08 µM) | relative viability (Tanzisertib + Vorinostat; first compound 0.253 µM) | relative viability (Tanzisertib + Vorinostat; first compound 0.8 µM) | relative viability (Tanzisertib + Vorinostat; first compound 2.53 µM) | relative viability (Tanzisertib + Vorinostat; first compound 8 µM) | relative viability ([2]; first compound 0.08 µM) | relative viability ([2]; first compound 0.253 µM) | relative viability ([2]; first compound 0.8 µM) | relative viability ([2]; first compound 2.53 µM) | relative viability ([2]; first compound 8 µM) | relative viability ([3]; first compound 0.04 µM) | relative viability ([3]; first compound 0.1265 µM) | relative viability ([3]; first compound 0.4 µM) | relative viability ([3]; first compound 1.265 µM) | relative viability ([3]; first compound 4 µM) |
| --- | --- | --- | --- | --- | --- | --- | --- | --- | --- | --- | --- | --- | --- | --- | --- | --- | --- | --- | --- | --- |
| NCI-H522 | 0.704 | 0.683 | 0.727 | 0.694 | 0.715 | 0.913 | 0.902 | 0.773 | 0.762 | 0.836 | 1.05 | 0.984 | 0.959 | 1.13 | 0.899 | – | – | – | – | – |
| LCLC-97TM1 | 0.254 | 0.263 | 0.249 | 0.218 | 0.304 | 0.862 | 0.749 | 0.638 | 0.86 | 0.169 | 0.222 | 0.243 | 0.215 | 0.204 | 0.229 | 0.242 | 0.239 | 0.343 | 0.373 | 0.48 |
| NCI-H1299 | – | – | – | – | – | – | – | – | – | – | – | – | – | – | – | 1.05 | 1.04 | 0.997 | 0.894 | 0.926 |
| NCI-H3122 | 0.46 | 0.454 | 0.419 | 0.458 | 0.458 | 1.37 | 1.09 | 0.932 | 1.09 | 1.12 | 0.23 | 0.187 | 0.213 | 0.159 | 0.206 | 0.827 | 0.76 | 0.827 | 0.762 | 0.797 |
| NCI-H1395 | 0.712 | 0.697 | 0.725 | – | 0.642 | 0.642 | 1.13 | 0.768 | 0.72 | 0.481 | 0.71 | 0.574 | 0.607 | 0.618 | 0.632 | 1.07 | 0.976 | 0.996 | – | 0.838 |
| NCI-H2009 | 0.318 | 0.391 | 0.355 | 0.346 | 0.351 | 0.728 | 0.743 | 0.773 | 0.753 | 0.729 | 0.201 | 0.209 | 0.263 | 0.278 | 0.187 | 1.11 | 1.13 | 1.1 | 0.996 | 0.786 |
| NCI-H1651 | 0.648 | 0.619 | 0.668 | 0.661 | 0.656 | 0.575 | 0.603 | 0.513 | 0.517 | 0.549 | 0.552 | 0.537 | 0.508 | 0.502 | 0.519 | 1.06 | 0.942 | 1.01 | 1.14 | 1.06 |
| HARA | 0.54 | 0.672 | 0.52 | 0.611 | 0.401 | 0.558 | 0.556 | – | 0.385 | 0.585 | 0.247 | 0.313 | 0.257 | 0.193 | 0.267 | 0.813 | 0.928 | 0.914 | 0.796 | 0.598 |
| NCI-H1944 | 0.524 | 0.425 | 0.458 | 0.495 | 0.404 | 0.607 | 0.562 | 0.633 | 0.611 | 0.533 | 0.322 | 0.343 | 0.324 | 0.339 | 0.295 | 0.981 | 0.796 | 0.928 | – | 0.657 |
| Calu-6 | – | – | – | – | – | – | – | – | – | – | – | – | – | – | – | 0.958 | 1.01 | 0.904 | 0.765 | 0.797 |
| NCI-H1703 | – | – | – | – | – | – | – | – | – | – | – | – | – | – | – | 0.332 | 0.382 | 0.345 | – | 0.317 |
| NCI-H1650 | 0.379 | 0.542 | 0.51 | 0.431 | 0.447 | 0.551 | 0.601 | 0.501 | 0.625 | 0.491 | 0.297 | 0.326 | 0.404 | 0.351 | 0.314 | – | – | – | – | – |
| NCI-H2342 | 0.758 | 0.624 | 0.809 | 0.798 | 0.746 | 0.801 | 0.847 | 0.816 | 0.765 | 0.754 | 0.539 | 0.542 | 0.52 | 0.497 | 0.582 | – | – | – | – | – |
| NCI-H1792 | 0.571 | 0.558 | 0.489 | 0.675 | 0.462 | – | – | – | – | – | 0.7 | 0.66 | 0.654 | 0.64 | 0.573 | 0.733 | 0.648 | 0.745 | 0.691 | 0.62 |
| ChaGo-K-1 | 0.569 | 0.526 | 0.548 | 0.529 | 0.456 | 0.81 | 0.801 | 0.71 | 0.779 | 0.57 | 0.977 | 0.927 | 0.91 | 0.889 | 0.903 | – | – | – | – | – |
| CAL-12T | – | – | – | – | – | 0.896 | 0.663 | 0.909 | 0.893 | 0.755 | 0.486 | 0.447 | 0.539 | 0.422 | 0.279 | 1.37 | 1.36 | 1.43 | 1.54 | 0.903 |
| NCI-H2228 | – | – | – | – | – | 1.03 | 0.626 | 0.777 | 0.728 | 0.518 | 1.12 | 0.818 | 0.684 | 0.741 | 0.655 | 0.822 | 0.824 | 0.934 | 0.766 | 1.01 |
| SW 900 | 0.412 | 0.43 | 0.43 | 0.509 | 0.421 | – | 0.604 | 0.641 | 0.512 | 0.382 | – | 0.522 | 0.557 | 0.56 | 0.454 | – | – | – | – | – |
| NCI-H1648 | 0.746 | 0.545 | 0.762 | 0.754 | 0.815 | 0.553 | 0.36 | 0.398 | 0.571 | 0.391 | 0.228 | 0.267 | 0.212 | 0.229 | 0.251 | – | – | – | – | – |
| NCI-H596 | 1.02 | 1.11 | 1.09 | 1.19 | 1.13 | 0.533 | 0.655 | 0.619 | 0.711 | 0.589 | – | – | – | – | – | 0.556 | 0.496 | 0.508 | 0.498 | 0.409 |
| IA-LM | – | – | – | – | – | 1.2 | 0.899 | 0.912 | 0.939 | 0.822 | – | – | – | – | – | 0.83 | 0.999 | 1.09 | 1.11 | 1.06 |
| A549 | 0.343 | 0.254 | 0.374 | 0.316 | 0.286 | – | – | – | – | – | – | – | – | – | – | 0.877 | 0.834 | 0.846 | 0.751 | 0.559 |
